We go through two compounds from patent US6083964A, “Optical resolution of racemic aminoalkylpyridine anticonvulsants and (+) aminoalkylpyridine enantiomers as highly potent orally effective anticonvulsant drugs and excitatory amino acid antagonists” (K and K Biosciences, Inc., priority 1999, dated 2000).

Series [1] is described as follows: Neurotoxicity, rotorod ataxia test, mice, i.p. Further details: species or system mouse (male Carworth Farms #1). The settings on record: mouse, in vivo, ip, TD50. The procedure:
(§1) Neurotoxicity is determined by the rotorod ataxia test in mice and by the positional sense test and gait and stance test in the rat. The following Table 2 presents the results of these anticonvulsant tests with respect to several (+) and (-) AAP enantiomeric compounds derived from optical resolution of racemic AAPs of the present invention. This Table 2 identifies the specific compounds tested by their chemical name and provides the test model, the route of administration, the animal species used, and the anticonvulsant activity and toxicity in terms of ED50 and TD50 values, (the median effective and toxic dose respectively), when intraperitoneally administered to mice, and when orally administered to rats. In mice, i.p.: All compounds are emulsified in 0.5% methylcellulose. The solvent has been tested for anticonvulsant and toxic effects and found to introduce no significant bias into the testing of anticonvulsant activity. The compounds are administered intraperitoneally in a volume of 0.01 ml/gm to male Carworth Farms #1 mice weighing about 20 gm. All compounds are tested at least at three dose levels (30, 100 and 300 mg/kg) at 30 minutes and 4 hours after their administration. Neurotoxicity is evaluated in mice by the rotorod ataxia test. The animal is placed on a wooden rod of 1 and 1/8 diameter rotating at 6 rpm. Normal mice can remain on a rod rotating at this speed indefinitely. […] Anticonvulsant Quantification in Mice i.p.: The ED50 values are determined in the MES, scMet and rotorod ataxia test. To determine the ED50 values, five logarithmically spaced doses of the test compound are administered to animals (male Carworth Farms #1 mice) in groups of eight, to cover 0-100% protection, and the dose required to protect 50% of the animals (ED50) together with its 95% confidence limits, is determined graphically.
In general terms: The rotarod test checks motor coordination on a turning rod.

The subject of series [2] is hippocampal kindled rats. Briefly: Toxicity in hippocampal kindled rats, i.p. The class given is in vivo. The settings on record: 100 mg/kg i.p., 45 min. As to the method:
The (+) AAP enantiomer, compound 1 in Table 1, was tested in the hippocampal kindled rat, by the i.p. route. […]

For series [3], the system named is maximal electroshock seizure (MES) in rats. Briefly: Maximal electroshock seizure (MES) test, rats, p.o. Type of series: in vivo, rat (Sprague-Dawley). The settings on record: rat, p.o.; for ED50: MES test; for P.I. (protective index, TD50/ED50): MES. From the text:
The (+) AAP enantiomers obtained by optical resolution of racemic AAPs and the resulting highly orally effective anticonvulsant compositions of this invention are useful in the treatment of convulsive disorders. […] A series of (+) AAP enantiomers and (-) AAP enantiomers of this invention has been evaluated for anticonvulsant activity by the intraperitoneal (i.p.) and by the oral (p.o.) route using two standard seizure models in the mouse and in the rat, the maximal electroshock seizure (MES) test and the subcutaneous pentylenetetrazol (Metrazole) seizure threshold (scMet) test. […] The following Table 2 presents the results of these anticonvulsant tests with respect to several (+) and (-) AAP enantiomeric compounds derived from optical resolution of racemic AAPs of the present invention. This Table 2 identifies the specific compounds tested by their chemical name and provides the test model, the route of administration, the animal species used, and the anticonvulsant activity and toxicity in terms of ED50 and TD50 values, (the median effective and toxic dose respectively), when intraperitoneally administered to mice, and when orally administered to rats. The Maximal Electroshock Seizure Test (MES): Maximal electroshock seizures are elicited with a 60 Hz alternating current of 50 mA intensity in mice and about 150 mA intensity in rats (5-7 times that necessary to elicit minimal electroshock seizures), delivered for 0.2 sec via corneal electrodes. A drop of 0.9% saline is instilled in the eye prior to application of the electrodes in order to […]. Abolition of the hind limb tonic extension component of the seizure is defined as protection and results are expressed as number of animals protected/number of animals tested. The Subcutaneous Pentylenetetrazol (Metrazole) Seizure Threshold Test (scMet): A 0.5% solution of 85 mg/kg of pentylenetetrazol is administered subcutaneously in the posterior midline 30 minutes or 4 hours after drug administration to the animal. […] This species will be the subject of the complete anticonvulsant quantification test evaluation as described above, but after oral (gavage) administration of the candidate compound.
(In general: In the maximal electroshock model the usual endpoint is tonic extension of the hind limbs.)

Series [4] can be described thus: Neurological deficit, positional sense test and gait and stance test, rats, p.o. The arrangement: species or system rat (Sprague-Dawley). As to conditions: rat, in vivo, po. The procedure:
(§2) Neurotoxicity is determined by the rotorod ataxia test in mice and by the positional sense test and gait and stance test in the rat. The following Table 2 presents the results of these anticonvulsant tests with respect to several (+) and (-) AAP enantiomeric compounds derived from optical resolution of racemic AAPs of the present invention. This Table 2 identifies the specific compounds tested by their chemical name and provides the test model, the route of administration, the animal species used, and the anticonvulsant activity and toxicity in terms of ED50 and TD50 values, (the median effective and toxic dose respectively), when intraperitoneally administered to mice, and when orally administered to rats. […] This species will be the subject of the complete anticonvulsant quantification test evaluation as described above, but after oral (gavage) administration of the candidate compound. […] Neurological deficit in rats is examined by the positional sense test and gait and stance test. […] Inability to do so rapidly indicates a neurologic deficit. In the gait and stance test, a neurologic deficit is indicated by a circular or a zigzag gait, ataxia, abnormal spread of the legs, abnormal body posture, tremor, hyperactivity, lack of exploratory behavior, somnolence, stupor, or catalepsy.

Series [5] relates to neurotoxicity (rotorod ataxia) in mice. In words: Neurotoxicity, rotorod ataxia test, mice, i.p. Further details: species or system mouse (male Carworth Farms #1). As to conditions: mouse, in vivo, ip. The procedure:
as §1

The test system of series [6] is neurological deficit in rats. Briefly: Neurological deficit, positional sense test and gait and stance test, rats, p.o. The arrangement: species or system rat (Sprague-Dawley). The settings on record: rat, in vivo, po. As to the method:
as §2

For orientation: ED50 means the dose at which the effect has come halfway, by size or by number of responders. Higher therefore signals a need for a large dose. Turning to `CC(Nc1ccc(Cl)cc1)c1ccncc1` (single isomer, unassigned; (+)) [Compound 1, (+) N-(4-Chlorophenyl)-1-(4-pyridyl)ethylamine], the values for the TD50 in series [1] and in series [4] were 149 mg/kg and > 500 mg/kg, respectively. In addition, the “toxic (number of animals)” value in series [2] is 2/7. In series [3] (listed as (1) (+) Enantiomer), this compound registered an ED50 of 10.2 mg/kg. The “P.I. (protective index, TD50/ED50)” value in series [3] (listed as (1) (+) Enantiomer) is > 49.1.
Turning to `CC(Nc1ccc(Cl)cc1)c1ccncc1` (single isomer, unassigned; (-)) [Compound 2, (-) N-(4-Chlorophenyl)-1-(4-pyridyl)ethylamine], in series [5], the TD50 turned out to be 219.4 mg/kg. Also, in series [3] (listed as (1) (-) Enantiomer), the ED50 is recorded as 25.8 mg/kg and the “P.I. (protective index, TD50/ED50)” value is > 19.4. Also, the TD50 in series [6] is given as > 500.0 mg/kg.
